Test results published in PubChem BioAssay AID276 (DTP/NCI, 2004).
Values joined by “and” are separate entries in the source; they are usually repeats but may differ in a detail not shown here. Equal entries are not always repeated. Inconclusive results and toxic doses are left out. Rule for the calls: active = survival T/C of 150% or more; inactive = T/C below 125% in these data.

Test system: B6C3F1 mice, Lewis lung carcinoma iv, survival T/C
Assay: NCI In Vivo Anticancer Drug Screen. Data for tumor model Lewis Lung Carcinoma (intravenous) in B6C3F1 mice
Details: endpoint: median survival time, schedule: Q01DX009 (ip), higher = longer survival
Procedure: The antitumor activity of compounds was measured in mice bearing transplantable tumors. Survival or tumor size were measured and the results are expressed as the measurement made in the treated group (T) divided by the measurement made in the vehicle treated control group (C). The tumor model used in this assay is Lewis Lung Carcinoma (intravenous) in B6C3F1 mice

[1] = dose: 12.5 mg/kg/injection, vehicle: saline with Tween-80
[2] = dose: 25.0 mg/kg/injection, vehicle: saline with Tween-80
[3] = dose: 50.0 mg/kg/injection, vehicle: saline with Tween-80
[4] = dose: 6.0 mg/kg/injection, vehicle: saline with Tween-80
[5] = dose: 100.0 mg/kg/injection, vehicle: saline with Tween-80
[6] = dose: 200.0 mg/kg/injection, vehicle: saline with Tween-80
[7] = dose: 12.5 mg/kg/injection, vehicle: saline
[8] = dose: 25.0 mg/kg/injection, vehicle: saline
[9] = dose: 50.0 mg/kg/injection, vehicle: saline

Measured: T/C

COC1CC(C)C(OC)c2cc(O)cc(c2O)NC(=O)/C(C)=C/C=C\C(C)C(OC(N)=O)/C(C)=C\C(C)C1OC (stereo not given)
inactive: dose: 5.0 mg/kg/injection, vehicle: saline + alcohol 115 % of control | dose: 10.0 mg/kg/injection, vehicle: saline + alcohol 88 % of control

COc1cccc2c1C(=O)c1c(O)c3c(c(O)c1C2=O)C[C@@](O)(C(=O)CO)C[C@@H]3OC1CC(N)C(O)C(C)O1 (stereo not given in full)
inactive: dose: 0.12 mg/kg/injection, vehicle: saline 94 % of control and 96 % of control and 98 % of control | dose: 0.13 mg/kg/injection, vehicle: saline 102 % of control | dose: 0.5 mg/kg/injection, vehicle: water 95 % of control and 100 % of control | dose: 1.0 mg/kg/injection, vehicle: water 88 % of control | dose: 2.0 mg/kg/injection, vehicle: water 90 % of control and 123 % of control | dose: 4.0 mg/kg/injection, vehicle: water 112 % of control

ClC1=C(Cl)C(Cl)=C(Cl)C1=Cc1ccccc1
inactive: dose: 3.12 mg/kg/injection, vehicle: saline with Tween-80 94 % of control and 101 % of control | dose: 6.25 mg/kg/injection, vehicle: saline with Tween-80 98 % of control and 108 % of control | [1] 98 % of control | [2] 97 % of control | [3] 105 % of control

CCCCCC1c2cc(O)ccc2OC1N1CCOCC1 (stereo not given)
inactive: [4] 96 % of control | dose: 12.0 mg/kg/injection, vehicle: saline with Tween-80 104 % of control | [1] 97 % of control | [2] 91 % of control | [3] 103 % of control and 104 % of control | [5] 94 % of control and 96 % of control | [6] 90 % of control and 99 % of control

O=C(Nc1cc(Cl)ccc1C(=O)O)c1cccc(C[n+]2ccccc2)c1
inactive: [1] 107 % of control | [2] 102 % of control | [3] 92 % of control | [5] 95 % of control | [6] 100 % of control and 102 % of control

CCC(C(=O)O)C(=O)O.[NH2-].[NH2-].[Pt+2]
inactive: dose: 3.12 mg/kg/injection, vehicle: saline 102 % of control | dose: 6.25 mg/kg/injection, vehicle: saline 103 % of control | [7] 120 % of control | [8] 112 % of control and 120 % of control | [9] 109 % of control and 118 % of control

O=C1c2cccc3cc([N+](=O)[O-])cc(c23)C(=O)N1CCN1CCCC1
inactive: dose: 3.0 mg/kg/injection, vehicle: saline with Tween-80 106 % of control | [4] 115 % of control

CCOC(=O)C1=C(C#N)C2(CCC(OCc3ccccc3)CC2)C(=O)O1 (stereo not given)
inactive: dose: 12.5 mg/kg/injection, vehicle: suspension in saline 94 % of control | dose: 25.0 mg/kg/injection, vehicle: suspension in saline 94 % of control | dose: 50.0 mg/kg/injection, vehicle: suspension in saline 92 % of control | dose: 100.0 mg/kg/injection, vehicle: suspension in saline 95 % of control | dose: 200.0 mg/kg/injection, vehicle: suspension in saline 102 % of control

Cn1cnc([N+](=O)[O-])c1Sc1ncn[nH]1
inactive: [7] 104 % of control | [8] 111 % of control | [9] 124 % of control | dose: 100.0 mg/kg/injection, vehicle: saline 116 % of control

CCSC(=O)N1c2ccc(OC)cc2C=CC1C#N (stereo not given)
inactive: [1] 98 % of control | [2] 113 % of control | [3] 99 % of control | [5] 104 % of control | [6] 110 % of control | dose: 400.0 mg/kg/injection, vehicle: saline with Tween-80 108 % of control

O=C1C(NCC(O)CO)=C(N2CC2)C(=O)C(NCC(O)CO)=C1N1CC1 (stereo not given)
inactive: dose: 0.5 mg/kg/injection, vehicle: saline 100 % of control | dose: 1.0 mg/kg/injection, vehicle: saline 98 % of control | dose: 2.0 mg/kg/injection, vehicle: saline 108 % of control | dose: 4.0 mg/kg/injection, vehicle: saline 116 % of control

Cn1cc(C2NC(=O)c3ccccc3N2)c2ccccc21 (stereo not given)
inactive: dose: 25.0 mg/kg/injection, vehicle: Klucel (hydroxypropylcellulose) (HPC) 104 % of control | dose: 50.0 mg/kg/injection, vehicle: Klucel (hydroxypropylcellulose) (HPC) 105 % of control | dose: 100.0 mg/kg/injection, vehicle: Klucel (hydroxypropylcellulose) (HPC) 100 % of control | dose: 200.0 mg/kg/injection, vehicle: Klucel (hydroxypropylcellulose) (HPC) 104 % of control
